Measurements: patent US8993556B2, “Resorcinol derivatives as HSP90 inhibitors” (priority 2009, dated 2015)
Like-named read-outs stand apart in the source and are kept apart here.

Experiments:
[1] = in vivo; conditions: Mouse Balb Nu/Nu, single; for clearance / half-life / Vd: 10 mg/kg IV bolus; for clearance: read-out: CL (mL/h/kg) Plasma clearance (converted); for half-life: read-out: T1/2 (h) Terminal half-life (converted); for Vd: read-out: Vdss (mL/kg) Volume of distribution at steady state; for bioavailability: 10 mg/kg oral vs 10 mg/kg IV, read-out: F % Oral bioavailability
Experimental: Calibration Standards and Quality Controls were prepared spiking blank mouse plasma with appropriate working solutions.
Sample plasma proteins were precipitated by adding 160 μL of acetonitrile/methanol 90/10 to 20 μL of mouse plasma in a 96 well plate.
After heat sealing and mixing for 3 minutes, the plate was centrifuged for 15 minutes at 4000 rpm.
The supernatant was considered as final extract and injected onto the LC-MS-MS system.
• UPLC system: Waters Acquity BSM • Mobile phase A: 95:5-5 mM Ammonium Formate pH3.5: Acetonitrile • Mobile phase B: 5:95-5 mM Ammonium Formate pH3.5: Acetonitrile • Analytical column: BEH C18 50×2.1 1.7 μm • Elution conditions:
• Total Run Time: 2.0 min. • Flow rate: 0.500 mL/min • Approximate retention time: NMS-03308086: 0.67 min. • Column oven temp: 40° C. • Autosampler type: Waters Acquity SM • Injection volume: 3 μL • Injection mode: Partial Loop with Needle Overfill • Autosampler temperature: 5° C. • MS instrument: Waters TQD • Ionisation: ES+ • Capillary: 1.5 kV • Cone: 70 V • Source Temperature: 150° C. • Desolvation Flow and Temp.: 900 L/h-400° C. • Collision Gas Flow: 0.2 mL/min • Collision Energy: 40 • MRM transitions: NMS-03308086: m/z 579.1>m/z 97.0 • Dwell Time: 0.1 seconds • LLOQ: 5.0 ng/mL • ULOQ: 5000 ng/mL • Software used: Mass Lynx 4.1 SCN627

[2] = molecular target: His-HSP90 N-term domain; assay: Determination of KD Via Biacore; format: binding; conditions: Biacore T100
Experimental: The evaluation of the binding affinity (KD) of the compounds of formula (I) to the HSP90 protein was done using Biacore T100.
His-HSP90 N-term domain was immobilized by capture of his tag by the Ab previously covalently bound to the chip (CM5) surface.
The compounds were analyzed using the following running buffer: 20 mM Tris/HCl pH 7.6, 150 mM KCl, 5 mM MgCl2, 0.05% P20 and 1% DMSO. The flow rate was 50 ul/min with and association time of 60 seconds.
The cpds were diluted in running buffer from 100× stock solution; the different conc injected were obtained from a sequential dilution in order to have the same DMSO conc. in each sample and avoid any solvent correction.

[3] = tested on: A2780 human ovarian cells; assay: In Vitro Cell Proliferation Assay; format: cell-based
Experimental: The cells were incubated at 37° C. and 5% CO2 and after 72 hours the plates were processed using CellTiter-Glo assay (Promega) following the manufacturer's instruction.
CellTiter-Glo is a homogenous method based on the quantification of the ATP present, an indicator of metabolically active cells. ATP is quantified using a system based on luciferase and D-luciferin resulting into light generation. The luminescent signal is proportional to the number of cells present in culture.
Briefly 25 μL/well reagent solution are added to each wells and after 5 minutes shacking microplates are red by a luminometer. The luminescent signal is proportional to the number of cells present in culture.

[4] = tested on: Her2 protein levels in BT474 breast cancer cells; assay: Her2 Degradation Assay; format: cell-based; conditions: Homo sapiens
Experimental: The potencies of the compounds of the present invention were evaluated by measuring the Her2 degradation as a marker for HSP90 inhibition.
HSP90 is a key component of a chaperone machinery that catalyzes the folding and quality control of several proteins. Its inhibition impairs the capacity to fold or stabilize its client proteins, leading to the proteosomal dependent degradation of these unfolded proteins. […] Cellular activity of HSP90 inhibitors was assessed by measuring the induced loss of Her2 protein levels in BT474 breast cancer cells (ATCC #HTB-20). Cellular Her2 levels were measured by immunocytochemistry, and quantified using an ArrayScan vTi instrument (Cellomics Thermo Scientific).
Cellular activity of HSP90 inhibitors was assessed by measuring the induced loss of Her2 protein levels in BT474 breast cancer cells (ATCC #HTB-20). Cellular Her2 levels were measured by immunocytochemistry, and quantified using an ArrayScan vTi instrument (Cellomics Thermo Scientific).
Studies were performed as follows: 5000 cells/well are seeded in 96 well plates (Perkin Elmer) in DMEM/5% FCS and incubated for 48 hours at 37° C., 5% CO2.
Medium is then replaced with fresh medium containing test compounds at the required concentration. Concentration curves are prepared in DMEM/10% FCS from compound stocks in DMSO, and final DMSO concentration is 0.1% (v/v). Duplicate wells for each concentration point are prepared, with a typical highest compound concentration of 30 μM. […] Plates are incubated for 20 minutes at room temperature, then wells are washed in PBS and cells permiabilised by incubating with PBS containing 0.3% Triton X-100 for 15 minutes at room temperature. Non-specific binding sites are blocked by incubating wells for 1 hour in PBS containing 3% (w/v) BSA. Wells are then incubated for 1 hour at room temperature in PBS containing anti Her2 mouse monoclonal (Anti-c-ErbB2/c-Neu, Mouse mAb 3B5, Calbiochem Cat N^o OP15) diluted 1:100 in 1% (w/v) BSA. […] After washing a further 3 times in PBS, cellular Her2 immunoreactivity is assessed using the ArrayScan vTi instrument, with a Zeiss 10× 0.5 N.A. objective, and applying the Cytotoxity.V3 algorithm (Cellomics/Thermo Fisher) with a XF100 filter. At least 10 fields, corresponding to at least 900 cells, are read for each well.
IC50 is the response; IC50 starts at Bottom and goes to Top with a sigmoid shape. In Vitro Cell Proliferation Assay

[5] = tested on: human ovarian carcinoma cell line A2780 transplanted in immunodeficient mice; assay: In Vivo Antitumor Efficacy; design: species or system mouse; conditions: for TGI: A2780 in athymic mice
Experimental: Antitumor activity of HSP90 inhibitors was assessed in vivo using the human ovarian carcinoma cell line A2780 transplanted in immunodeficient mice.
Balb Nu/Nu, male mice, (athymic mice) from Harlan, Italy, were maintained in cages with paper filter covers, food and bedding sterilized and water acidified. A2780 tumors were maintained in vivo by serial transplantation and, at the time of efficacy experiments, implanted subcutaneously in athymic mice. The treatments started 8 days later when the tumors were palpable. HSP90 inhibitors were prepared immediately before use and administered intravenously in a volume of 10 ml/kg at different doses.
Tumor growth was assessed by caliper. The two diameters were recorded, and the tumor weight was calculated according to the following formula: length (mm)×width^2 (mm)/2. The effect of the antitumor treatment was determined as tumor growth inhibition (TGI %) of treated group respect to vehicle treated controls.

[6] = Homo sapiens, A2780, 72 h, read-out: A2780 Proliferation IC50 (μM)
[7] = BT-474, 8 h, read-out: Her2 Degradation IC50 (μM)
[8] = A2780 human ovarian cells, 72 hours, CellTiter-Glo, read-out: A2780 Proliferation IC50
[9] = BT-474, BT474 breast cancer cells, 8 hours, read-out: Her2 Degradation IC50

Row | SMILES | clearance [1] | half-life [1] | Vd [1] | bioavailability [1] | Kd [2] | IC50 [3, 6] | IC50 [4, 7] | IC50 [4, 9] | further results
1 | CN(C)c1ccc(Oc2cc(O)cc(O)c2-c2cc(C(=O)NC3CCN(C4CCC5(CC4)OCCO5)CC3)no2)cc1 | 1760 mL/h/kg | 5.46 h | 4940 mL/kg | 36% | – | – | – | – | –
2 | CN1CCC(NC(=O)c2cc(-c3c(O)cc(O)cc3Oc3ccc([N+](=O)[O-])cc3)no2)CC1 [3-[2,4-Dihydroxy-6-(4-nitrophenoxy)phenyl]-N-(1-methylpiperidin-4-yl)isoxazole-5-carboxamide] | 3420 mL/h/kg | 1.52 h | 4470 mL/kg | 7% | 0.24 nM | 0.02 µM | 0.022 µM | – | –
3 | CN(C)c1ccc(Oc2cc(O)cc(O)c2-c2cc(C(=O)NC3CCN(C4CCC5(CC4)OCCO5)CC3)on2)cc1 [3-{2-[4-(Dimethylamino)phenoxy]-4,6-dihydroxyphenyl}-N-[1-(1,4-dioxaspiro[4.5]dec-8-yl)piperidin-4-yl]isoxazole-5-carboxamide] | 1910 mL/h/kg | 7.23 h | 9120 mL/kg | 23% | 0.043 nM | – | – | 0.003 µM | IC50 [3, 8]: 0.02 µM
4 | CC(C)N1CCC(NC(=O)c2cc(-c3c(O)cc(O)cc3Oc3ccc([N+](=O)[O-])cc3)on2)CC1 [5-[2,4-Dihydroxy-6-(4-nitrophenoxy)phenyl]-N-[1-(propan-2-yl)piperidin-4-yl]isoxazole-3-carboxamide] | – | – | – | – | – | – | 0.058 µM | – | –
5 | CCNC(=O)c1cc(-c2c(O)cc(O)cc2Oc2ccc([N+](=O)[O-])cc2)on1 [5-[2,4-Dihydroxy-6-(4-nitrophenoxy)phenyl]-N-ethyl isoxazole-3-carboxamide] | – | – | – | – | – | 0.07 µM | 0.059 µM | – | –
6 | CN1CCC(NC(=O)c2cc(-c3c(O)cc(O)cc3Oc3ccc([N+](=O)[O-])cc3)on2)CC1 [5-[2,4-dihydroxy-6-(4-nitrophenoxy)phenyl]-N-(1-methylpiperidin-4-yl)isoxazole-3-carboxamide] | – | – | – | – | – | – | – | 0.11 µM | IC50 [3, 8]: 0.06 µM; TGI ([5]; 30 mg/kg for 10 consecutive days, intravenously): 53%; TGI ([5]; 60 mg/kg for 10 consecutive days, intravenously): 74%; signs of toxicities ([5]; 30 and 60 mg/kg for 10 consecutive days, athymic mice): without signs of toxicities
7 | CCNC(=O)c1cc(-c2c(O)cc(O)cc2Oc2ccc(C#N)cc2)on1 [5-[2-(4-Cyanophenoxy)-4,6-dihydroxyphenyl]-N-ethylisoxazole-3-carboxamide] | – | – | – | – | – | – | – | 0.277 µM | –
8 | CCNC(=O)c1cc(-c2c(O)cc(O)cc2Oc2ccc(Cl)cc2)on1 [5-[2-(4-chlorophenoxy)-4,6-dihydroxyphenyl]-N-ethylisoxazole-3-carboxamide] | – | – | – | – | – | – | 0.059 µM | – | –
9 | CN1CCC(NC(=O)c2cc(-c3c(O)cc(O)cc3Oc3ccc(N(C)C)cc3)on2)CC1 [5-{2-[4-(Dimethylamino)phenoxy]-4,6-dihydroxyphenyl}-N-(1-methylpiperidin-4-yl)isoxazole-3-carboxamide] | – | – | – | – | – | – | – | 0.039 µM | TGI ([5]; intravenously at 40 mg/Kg daily): 77%
10 | CN(C)c1ccc(Oc2cc(O)cc(O)c2-c2cc(C(=O)NC3CCN(C4CCC5(CC4)OCC(C)(C)CO5)CC3)no2)cc1 [5-{2-[4-(Dimethylamino)phenoxy]-4,6-dihydroxyphenyl}-N-[1-(3,3-dimethyl-1,5-dioxaspiro[5.5]undec-9-yl)piperidin-4-yl]isoxazole-3-carboxamide] | 1340 mL/h/kg | 6.71 h | 6000 mL/kg | 19% | 0.08 nM | – | – | 0.037 µM | IC50 [3, 8]: 0.035 µM
11 | CN(C)c1ccc(Oc2cc(O)cc(O)c2-c2cc(C(=O)NC3CCN(C4CCC5(CC4)OCCCCO5)CC3)no2)cc1 [5-{2-[4-(Dimethylamino)phenoxy]-4,6-dihydroxyphenyl}-N-[1-(7,12-dioxaspiro[5.6]dodec-3-yl)piperidin-4-yl]isoxazole-3-carboxamide] | 1310 mL/h/kg | 6.87 h | 5980 mL/kg | 14% | 0.423 nM | – | – | 0.045 µM | IC50 [3, 8]: 0.023 µM
12 | CN(C)c1ccc(Oc2cc(O)cc(O)c2-c2cc(C(=O)NC3CCN(C4CCCCC4)CC3)no2)cc1 [N-(1-Cyclohexylpiperidin-4-yl)-5-{2-[4-(dimethylamino)phenoxy]-4,6-dihydroxyphenyl}isoxazole-3-carboxamide] | – | – | – | – | – | – | 0.003 µM | – | –
13 | O=C(NC1CCN(C2CCC(F)(F)CC2)CC1)c1cc(-c2c(O)cc(O)cc2Oc2ccc([N+](=O)[O-])cc2)on1 [N-[1-(4,4-Difluorocyclohexyl)piperidin-4-yl]-5-[2,4-dihydroxy-6-(4-nitrophenoxy)phenyl]isoxazole-3-carboxamide] | – | – | – | – | 0.8 nM | 0.05 µM | 0.027 µM | – | –
14 | CN(C)c1ccc(Oc2cc(O)cc(O)c2-c2cc(C(=O)NC3CCN(C4CCC(F)(F)CC4)CC3)no2)cc1 [N-[1-(4,4-Difluorocyclohexyl)piperidin-4-yl]-5-{2-[4-(dimethylamino)phenoxy]-4,6-dihydroxyphenyl}isoxazole-3-carboxamide] | – | – | – | – | 0.057 nM | 0.02 µM | 0.002 µM | – | –
15 | CN(C)c1ccc(Oc2cc(O)cc(O)c2-c2cc(C(=O)NC3CCN(CC4CCCCC4)CC3)no2)cc1 [N-[1-(Cyclohexylmethyl)piperidin-4-yl]-5-{2-[4-(dimethylamino)phenoxy]-4,6-dihydroxyphenyl}isoxazole-3-carboxamide] | – | – | – | – | 0.188 nM | 0.01 µM | 0.02 µM | – | –
